From patent publication US10023570B2 (Array BioPharma, Inc., priority 2015, dated 2018)
Structures can show the parent of a compound that is named as a salt. Where two headings read alike, the source gives them in different places.

Legend:
[1] = target: Kif5b-RET fusion protein in HEK-293 cells (Homo sapiens, UniProt P07949); assay: cell-based
Experimental: The cellular potency of a compound inhibiting RET kinase was determined in HEK-293 cells expressing a Kif5b-RET fusion protein. Briefly, HEK-293 cells expressing a Kif5b-RET fusion protein were plated at 50K cells/well in 96 well poly-D-Lysine coated plates the day prior to the assay. The cells were incubated for 1 hour with test compound in DMEM (Dulbecco's Modified Eagle Medium) at a final DMSO concentration of 0.5%. […] After 1 hour the media was removed, the cells were fixed with 3.8% formaldehyde for 20 min, washed with PBS, and permeabilized for 10 min with 100% methanol. […] All antibodies were diluted in LI-COR Block containing 0.05% Tween. The plates were washed with PBS-0.05% Tween20, 100 μL PBS was added to each well, and the plates were read on a LI-COR Aerius fluorescent plate reader. The phospho-RET signal was normalized to the GAPDH signal. […] The IC50 value is the point where the curve crosses 50 POC.

[2] = target: N-terminal GST tagged recombinant human RET cytoplasmic domain (aa 658-end), wild type RET kinase (Homo sapiens (Human), UniProt P07949); assay: RET Enzyme Assay (HTRF KinEASE-TK), wild type RET; type: biochemical; conditions: wild type RET, 1 mM ATP
N-terminal GST tagged recombinant human RET cytoplasmic domain (aa 658-end), wild type RET kinase, sequence (P07949 658-1114): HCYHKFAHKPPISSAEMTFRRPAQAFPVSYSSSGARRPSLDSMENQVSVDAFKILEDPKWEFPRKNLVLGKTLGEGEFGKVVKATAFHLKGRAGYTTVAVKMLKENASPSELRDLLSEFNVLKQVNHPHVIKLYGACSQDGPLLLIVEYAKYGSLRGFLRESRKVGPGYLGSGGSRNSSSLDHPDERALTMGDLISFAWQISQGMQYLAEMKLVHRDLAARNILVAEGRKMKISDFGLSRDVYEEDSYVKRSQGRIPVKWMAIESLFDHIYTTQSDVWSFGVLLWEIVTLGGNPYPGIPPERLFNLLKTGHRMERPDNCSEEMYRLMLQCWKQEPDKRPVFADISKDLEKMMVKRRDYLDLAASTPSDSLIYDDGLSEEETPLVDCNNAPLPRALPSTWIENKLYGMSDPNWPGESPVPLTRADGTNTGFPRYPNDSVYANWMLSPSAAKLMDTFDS

[3] = HEK-293 cells expressing Kif5b-RET, read-out: KIF5B-RET pTYR1062 Cell IC50
[4] = read-out: KIF5B-RET pTYR1062 Cell IC50
[5] = HEK-293 cells expressing Kif5b-RET, phospho-RET(Tyr1062), read-out: KIF5B-RET pTYR1062 Cell IC50

Kif5b-RET fusion protein in HEK-293 cells, sequence (P07949 29-1114 limits assumed): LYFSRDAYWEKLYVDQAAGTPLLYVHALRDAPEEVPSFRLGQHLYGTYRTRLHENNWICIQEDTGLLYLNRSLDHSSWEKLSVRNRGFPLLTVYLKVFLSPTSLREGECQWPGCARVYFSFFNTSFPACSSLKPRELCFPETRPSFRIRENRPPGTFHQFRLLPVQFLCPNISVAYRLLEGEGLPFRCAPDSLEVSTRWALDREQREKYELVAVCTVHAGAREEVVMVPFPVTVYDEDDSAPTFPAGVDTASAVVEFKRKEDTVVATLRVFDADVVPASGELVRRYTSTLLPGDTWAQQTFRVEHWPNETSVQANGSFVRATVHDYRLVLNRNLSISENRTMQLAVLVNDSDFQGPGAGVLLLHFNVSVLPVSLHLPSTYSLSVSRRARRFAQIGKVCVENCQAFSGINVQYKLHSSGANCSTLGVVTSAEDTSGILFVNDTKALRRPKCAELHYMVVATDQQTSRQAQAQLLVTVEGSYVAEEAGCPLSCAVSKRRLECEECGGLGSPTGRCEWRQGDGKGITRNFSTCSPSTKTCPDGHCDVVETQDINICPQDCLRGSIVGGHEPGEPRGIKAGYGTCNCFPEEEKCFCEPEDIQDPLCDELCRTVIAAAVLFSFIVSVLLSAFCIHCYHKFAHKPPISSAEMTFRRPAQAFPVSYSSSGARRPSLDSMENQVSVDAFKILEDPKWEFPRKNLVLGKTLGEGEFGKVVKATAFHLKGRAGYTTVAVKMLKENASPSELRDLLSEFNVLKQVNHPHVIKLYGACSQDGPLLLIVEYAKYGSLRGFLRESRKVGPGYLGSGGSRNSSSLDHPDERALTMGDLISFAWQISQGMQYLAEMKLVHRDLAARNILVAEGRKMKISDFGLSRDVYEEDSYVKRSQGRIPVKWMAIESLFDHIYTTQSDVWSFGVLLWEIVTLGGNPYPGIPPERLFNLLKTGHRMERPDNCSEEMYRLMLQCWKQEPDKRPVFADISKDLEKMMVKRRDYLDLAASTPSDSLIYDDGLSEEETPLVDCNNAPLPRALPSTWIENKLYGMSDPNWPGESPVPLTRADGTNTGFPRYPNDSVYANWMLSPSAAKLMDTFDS

Row | Structure (SMILES) | IC50 [1, 3] [nM] | IC50 [2] [nM] | IC50 [1, 4] [nM] | IC50 [1] [nM] | IC50 [1, 5] [nM]
1 | COc1ccc(CN2CCN(c3ccc(-c4cc(-c5cn[nH]c5)cn5ncc(C#N)c45)cn3)CC2)cn1 [Example 698, 4-(6-(4-((6-methoxypyridin-3-yl)methyl)piperazin-1-yl)pyridin-3-yl)-6-(1H-pyrazol-4-yl)pyrazolo[1,5-a]pyridine-3-carbonitrile] | 12.4 | 6.7 |  |  | 
2 | N#Cc1cnn2cc(-c3cnn(C(F)F)c3)cc(-c3ccc(N4CCNCC4)nc3)c12 [Example 266, 6-(1-(difluoromethyl)-1H-pyrazol-4-yl)-4-(6-(piperazin-1-yl)pyridin-3-yl)pyrazolo[1,5-a]pyridine-3-carbonitrile dihydrochloride] |  | 47.7 | 162 |  | 
3 | Cn1cc(-c2cc(-c3ccc(N4CCN(Cc5ccc(OC(F)F)nc5)CC4)nc3)c3c(C#N)cnn3c2)cn1 [Example 675, 4-(6-(4-((6-(difluoromethoxy)pyridin-3-yl)methyl)piperazin-1-yl)pyridin-3-yl)-6-(1-methyl-1H-pyrazol-4-yl)pyrazolo[1,5-a]pyridine-3-carbonitrile] | 24.1 | 13.6 |  |  | 
4 | COc1ccc(CN2CCN(c3ccc(-c4cc(-c5cnn(C)c5)cn5ncc(Cl)c45)cn3)CC2)cn1 [Example 742, 3-chloro-4-(6-(4-((6-methoxypyridin-3-yl)methyl)piperazin-1-yl)pyridin-3-yl)-6-(1-methyl-1H-pyrazol-4-yl)pyrazolo[1,5-a]pyridine] |  | 37.3 |  | 38.5 | 
5 | COc1ccc(CN2CCN(c3ccc(-c4cc(-c5cnn(CC(C)OC)c5)cn5ncc(C#N)c45)cn3)CC2)cn1 (centres unmarked) [Example 709, 6-(1-(2-methoxypropyl)-1H-pyrazol-4-yl)-4-(6-(4-((6-methoxypyridin-3-yl)methyl)piperazin-1-yl)pyridin-3-yl)pyrazolo[1,5-a]pyridine-3-carbonitrile] | 9.3 | 26.2 |  |  | 
6 | COc1ccc(CN2CCN(c3ccc(-c4cc(-c5cnn(CCS(=O)(=O)C(C)C)c5)cn5ncc(C#N)c45)cn3)CC2)cn1 [Example 703, 6-(1-(2-(isopropylsulfonyl)ethyl)-1H-pyrazol-4-yl)-4-(6-(4-((6-methoxypyridin-3-yl)methyl)piperazin-1-yl)pyridin-3-yl)pyrazolo[1,5-a]pyridine-3-carbonitrile] | 9.8 | 16.4 |  |  | 
7 | COc1ccc(CN2CCN(c3ccc(-c4cc(-c5cnn(C)c5)cn5ncc(C#N)c45)cn3)CC2)c(C)n1 [Example 678, 4-(6-(4-((6-methoxy-2-methylpyridin-3-yl)methyl)piperazin-l-yl)pyridin-3-yl)-6-(1-methyl-1H-pyrazol-4-yl)pyrazolo[1,5-a]pyridine-3-carbonitrile] |  | 15 |  | 16.3 | 
8 | COC(CN1CCN(c2ccc(-c3cc(-c4cnn(C)c4)cn4ncc(C#N)c34)cn2)CC1)C(C)(C)C (centres unmarked) [Example 417, 4-(6-(4-(2-methoxy-3,3-dimethylbutyl)piperazin-1-yl)pyridin-3-yl)-6-(1-methyl-1H-pyrazol-4-yl)pyrazolo[1,5-a]pyridine-3-carbonitrile] | 48.5 | 37.1 |  |  | 
9 | COc1cccc(CN2CCN(c3ccc(-c4cc(-c5cn[nH]c5)cn5ncc(C#N)c45)cn3)CC2)n1 [Example 699, 4-(6-(4-((6-methoxypyridin-2-yl)methyl)piperazin-1-yl)pyridin-3-yl)-6-(1H-pyrazol-4-yl)pyrazolo[1,5-a]pyridine-3-carbonitrile] | 24.3 | 19.4 |  |  | 
10 | COc1cccc(CN2CCN(c3ccc(-c4cc(-c5cnn(C)c5)cn5ncc(C#N)c45)cn3)CC2)n1 [Example 399, 4-(6-(4-((6-methoxypyridin-2-yl)methyl)piperazin-1-yl)pyridin-3-yl)-6-(1-methyl-1H-pyrazol-4-yl)pyrazolo[1,5-a]pyridine-3-carbonitrile] | 7.7 | 10.8 |  |  | 
11 | Cc1cnn2cc(-c3cnn(C)c3)cc(-c3ccc(N4CCN(Cc5ccccc5)CC4)nc3)c12 [Example 653, 4-(6-(4-benzylpiperazin-1-yl)pyridin-3-yl)-3-methyl-6-(1-methyl-1H-pyrazol-4-yl)pyrazolo[1,5-a]pyridine] | 69.4 | 86.9 |  |  | 
12 | CC(C)C(=O)N[C@H]1CCCN(c2ccc(-c3cc(-c4cnn(C)c4)cn4ncc(C#N)c34)cn2)C1 [Example 225, (S)—N-(1-(5-(3-cyano-6-(1-methyl-1H-pyrazol-4-yl)pyrazolo[1,5-a]pyridin-4-yl)pyridin-2-yl)piperidin-3-yl)isobutyramide] |  | 104 |  |  | 462
13 | CN(C)CCC(=O)N1CCN(c2ccc(-c3cc(-c4cnn(C)c4)cn4ncc(C#N)c34)cn2)CC1 [Example 33, 4-(6-(4-(3-(dimethylamino)propanoyl)piperazin-1-yl)pyridin-3-yl)-6-(1-methyl-1H-pyrazol-4-yl)pyrazolo[1,5-a]pyridine-3-carbonitrile bis(2,2,2-trifluoroacetate)] |  | 42.9 | 310 |  | 
14 | CCc1cnn2cc(-c3cnn(C)c3)cc(-c3ccc(N4CCNCC4)nc3)c12 [Example 657, 3-ethyl-6-(1-methyl-1H-pyrazol-4-yl)-4-(6-(piperazin-1-yl)pyridin-3-yl)pyrazolo[1,5-a]pyridine] | 215 | 140 |  |  | 
15 | Cc1nn(C)c(C)c1-c1cc(-c2ccc(N3CCN(Cc4ccccc4)CC3)nc2)c2c(C#N)cnn2c1 [Example 613, 4-(6-(4-benzylpiperazin-1-yl)pyridin-3-yl)-6-(1,3,5-trimethyl-1H-pyrazol-4-yl)pyrazolo[1,5-a]pyridine-3-carbonitrile] |  | 122 |  | 361 | 
16 | COc1ccc(CN2CCN(c3ccc(-c4cc(-c5cnn(CC(=O)N(C)C)c5)cn5ncc(C#N)c45)cn3)CC2)cn1 [Example 710, 2-(4-(3-cyano-4-(6-(4-((6-methoxypyridin-3-yl)methyl)piperazin-l-yl)pyridin-3-yl)pyrazolo[1,5-a]pyridin-6-yl)-1H-pyrazol-1-yl)-N,N-dimethylacetamide] | 12.6 | 20 |  |  | 
17 | CNC(=O)N1CCN(c2ccc(-c3cc(-c4cnn(C)c4)cn4ncc(C#N)c34)cn2)CC1 [Example 387, 4-(5-(3-cyano-6-(1-methyl-1H-pyrazol-4-yl)pyrazolo[1,5-a]pyridin-4-yl)pyridin-2-yl)-N-methylpiperazine-1-carboxamide] |  | 25.1 |  | 53.2 | 
18 | Cn1cc(-c2cc(-c3ccc(N4CCN(Cc5ccc(OCC(F)(F)F)nc5)CC4)nc3)c3c(C#N)cnn3c2)cn1 [Example 674, 6-(1-methyl-1H-pyrazol-4-yl)-4-(6-(4-((6-(2,2,2-trifluoroethoxy)pyridin-3-yl)methyl)piperazin-1-yl)pyridin-3-yl)pyrazolo[1,5-a]pyridine-3-carbonitrile] | 74.7 | 42.5 |  |  | 
19 | CCc1nn(CC)cc1-c1cc(-c2ccc(N3CCN(Cc4ccccc4)CC3)nc2)c2c(C#N)cnn2c1 [Example 615, 4-(6-(4-benzylpiperazin-1-yl)pyridin-3-yl)-6-(1,3-diethyl-1H-pyrazol-4-yl)pyrazolo[1,5-a]pyridine-3-carbonitrile] |  | 60 |  | 117 | 
20 | COc1ccc(CN2CCN(c3ccc(-c4cc(-c5cnn(C[C@H](C)O)c5)cn5ncc(C#N)c45)cn3)CC2)cn1 [Example 701, (S)-6-(1-(2-hydroxypropyl)-1H-pyrazol-4-yl)-4-(6-(4-((6-methoxypyridin-3-yl)methyl)piperazin-1-yl)pyridin-3-yl)pyrazolo[5-a]pyridine-3-carbonitrile] | 8 | 16.5 |  |  | 
21 | C[C@H](O)C(=O)NC1CCN(c2ccc(-c3cc(-c4cnn(C)c4)cn4ncc(C#N)c34)cn2)CC1 [Example 180, (S)-N-(1-(5-(3-cyano-6-(1-methyl-1H-pyrazol-4-yl)pyrazolo[1,5-a]pyridin-4-yl)pyridin-2-yl)piperidin-4-yl)-2-hydroxypropanamide] |  | 13.6 |  |  | 135
22 | Cn1cc(-c2cc(-c3ccc(N4CCC(C(=O)NOCCO)CC4)nc3)c3c(C#N)cnn3c2)cn1 [Example 566, 1-(5-(3-cyano-6-(1-methyl-1H-pyrazol-4-yl)pyrazolo[1,5-a]pyridin-4-yl)pyridin-2-yl)-N-(2-hydroxyethoxy)piperidine-4-carboxamide] | 146 | 9 |  |  | 
23 | CC(O)CN(C)C(=O)C1CCN(c2ccc(-c3cc(-c4cnn(C)c4)cn4ncc(C#N)c34)cn2)CC1 (centres unmarked) [Example 245, 1-(5-(3-cyano-6-(1-methyl-1H-pyrazol-4-yl)pyrazolo[1,5-a]pyridin-4-yl)pyridin-2-yl)-N-(2-hydroxypropyl)-N-methylpiperidine-4-carboxamide] |  | 30.2 |  |  | 191
24 | CC(C)OCCN1CCN(c2ccc(-c3cc(-c4cnn(C(F)F)c4)cn4ncc(C#N)c34)cn2)CC1 [Example 585, 6-(1-(difluoromethyl)-1H-pyrazol-4-yl)-4-(6-(4-(2-isopropoxyethyl)piperazin-1-yl)pyridin-3-yl)pyrazolo[1,5-a]pyridine-3-carbonitrile] |  | 13.6 |  | 13.2 | 
25 | CC(C)C(O)CN1CCN(c2ccc(-c3cc(-c4cnn(C)c4)cn4ncc(Cl)c34)cn2)CC1 (centres unmarked) [Example 648, 1-(4-(5-(3-chloro-6-(1-methyl-1H-pyrazol-4-yl)pyrazolo[1,5-a]pyridin-4-yl)pyridine-2-yl)piperazin-1-yl)-3-methylbutan-2-ol] |  | 34.1 |  | 183 | 
